Laboratory results published in PubChem BioAssay (NCI).
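Compound exposure: 48 hours, 5 concentrations, 96-well plates. At the TGI there is no net growth.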

Columns and labels:
Assay in all cases: growth of human tumour cells (NCI), 48 h
COLO 205 colon = tested on: COLO 205 colon
HS 578T breast = tested on: HS 578T breast
SF-268 CNS = tested on: SF-268 CNS
SK-MEL-28 melanoma = tested on: SK-MEL-28 melanoma
A549 NSCLC = tested on: A549 NSCLC
EKVX NSCLC = tested on: EKVX NSCLC
MDA-MB-435 = tested on: MDA-MB-435
HCT-116 colon = tested on: HCT-116 colon
SK-MEL-5 melanoma = tested on: SK-MEL-5 melanoma
KM12 colon = tested on: KM12 colon
BT-549 breast = tested on: BT-549 breast
RPMI-8226 leukemia = tested on: RPMI-8226 leukemia
SN12C renal = tested on: SN12C renal
K-562 leukemia = tested on: K-562 leukemia
LXFL 529 NSCLC = tested on: LXFL 529 NSCLC
786-0 renal = tested on: 786-0 renal
OVCAR-3 ovarian = tested on: OVCAR-3 ovarian
HOP-92 NSCLC = tested on: HOP-92 NSCLC
UACC-257 melanoma = tested on: UACC-257 melanoma
OVCAR-4 ovarian = tested on: OVCAR-4 ovarian
A498 renal = tested on: A498 renal
HCC-2998 colon = tested on: HCC-2998 colon
MCF7 breast = tested on: MCF7 breast
SW-620 colon = tested on: SW-620 colon
ACHN renal = tested on: ACHN renal
NCI-H522 lung = tested on: NCI-H522 lung
HOP-18 NSCLC = tested on: HOP-18 NSCLC
LOX IMVI melanoma = tested on: LOX IMVI melanoma
CAKI-1 renal = tested on: CAKI-1 renal
SK-MEL-2 melanoma = tested on: SK-MEL-2 melanoma
CCRF-CEM leukemia = tested on: CCRF-CEM leukemia
DMS 114 small cell lung = tested on: DMS 114 small cell lung
HCT-15 colon = tested on: HCT-15 colon
HOP-62 NSCLC = tested on: HOP-62 NSCLC
NCI/ADR-RES ovarian = tested on: NCI/ADR-RES ovarian
UO-31 renal = tested on: UO-31 renal
XF 498 CNS = tested on: XF 498 CNS
MDA-N = tested on: MDA-N
RXF 393 renal = tested on: RXF 393 renal
KM20L2 colon = tested on: KM20L2 colon
SNB-19 CNS = tested on: SNB-19 CNS
TK-10 renal = tested on: TK-10 renal
HT29 colon = tested on: HT29 colon
DU-145 prostate = tested on: DU-145 prostate
NCI-H226 lung = tested on: NCI-H226 lung
IGROV1 ovarian = tested on: IGROV1 ovarian
SNB-75 CNS = tested on: SNB-75 CNS
MALME-3M melanoma = tested on: MALME-3M melanoma
HL-60(TB) leukemia = tested on: HL-60(TB) leukemia
U251 CNS = tested on: U251 CNS
SR leukemia = tested on: SR leukemia
DLD-1 colon = tested on: DLD-1 colon
OVCAR-5 ovarian = tested on: OVCAR-5 ovarian
M19-MEL melanoma = tested on: M19-MEL melanoma
M14 melanoma = tested on: M14 melanoma
OVCAR-8 ovarian = tested on: OVCAR-8 ovarian
SK-OV-3 ovarian = tested on: SK-OV-3 ovarian
SF-295 CNS = tested on: SF-295 CNS
SNB-78 CNS = tested on: SNB-78 CNS
PC-3 prostate = tested on: PC-3 prostate
MOLT-4 leukemia = tested on: MOLT-4 leukemia
NCI-H460 lung = tested on: NCI-H460 lung
NCI-H23 lung = tested on: NCI-H23 lung
SF-539 CNS = tested on: SF-539 CNS
UACC-62 melanoma = tested on: UACC-62 melanoma
MDA-MB-231 breast = tested on: MDA-MB-231 breast
T-47D breast = tested on: T-47D breast

`COc1ccc(/C=C2\CCC(CN(C)C)C2=O)cc1` (stereo unspecified) gave a TGI (COLO 205 colon) of 10.4 µM, a TGI (HS 578T breast) greater than 100 µM and a TGI (SF-268 CNS) of 19.1 µM. The TGI (SK-MEL-28 melanoma) was 14.6 µM, the TGI (A549 NSCLC) was 30.6 µM and the TGI (EKVX NSCLC) was 37.5 µM. It also gave a TGI (MDA-MB-435) of 3.63 µM, a TGI (HCT-116 colon) of 8.27 µM and a TGI (SK-MEL-5 melanoma) of 16.3 µM. The TGI (KM12 colon) was 22.1 µM, the TGI (BT-549 breast) was 9.27 µM and the TGI (RPMI-8226 leukemia) was 3.97 µM. It also gave a TGI (SN12C renal) of 32.8 µM, a TGI (K-562 leukemia) of 7.25 µM and a TGI (LXFL 529 NSCLC) of 4.17 µM. For the same compound, the TGI (786-0 renal) was 3.17 µM, the TGI (OVCAR-3 ovarian) was 10.6 µM and the TGI (HOP-92 NSCLC) was 28.2 µM. The TGI (UACC-257 melanoma) was 13.3 µM, the TGI (OVCAR-4 ovarian) was 16.1 µM and the TGI (A498 renal) was 28.9 µM. For the same compound, the TGI (HCC-2998 colon) was 19.1 µM, the TGI (MCF7 breast) was 6.03 µM and the TGI (SW-620 colon) was 4.32 µM. For the same compound, the TGI (ACHN renal) was 21.3 µM, the TGI (NCI-H522 lung) was 2840 nM and the TGI (HOP-18 NSCLC) was 19.9 µM. For the same compound, the TGI (LOX IMVI melanoma) was 3.63 µM, the TGI (CAKI-1 renal) was 5.05 µM and the TGI (SK-MEL-2 melanoma) was 17.6 µM. For the same compound, the TGI (CCRF-CEM leukemia) was greater than 25.9 µM, the TGI (DMS 114 small cell lung) was 21.6 µM and the TGI (HCT-15 colon) was 6.49 µM. For the same compound, the TGI (HOP-62 NSCLC) was 33.6 µM, the TGI (NCI/ADR-RES ovarian) was 5.07 µM and the TGI (UO-31 renal) was 15.5 µM. The TGI (XF 498 CNS) was 16.3 µM, the TGI (MDA-N) was 9.09 µM and the TGI (RXF 393 renal) was 13.6 µM. For the same compound, the TGI (KM20L2 colon) was 36.8 µM, the TGI (SNB-19 CNS) was 23.2 µM and the TGI (TK-10 renal) was 14 µM. For the same compound, the TGI (HT29 colon) was 24.1 µM, the TGI (DU-145 prostate) was 5.8 µM and the TGI (NCI-H226 lung) was 31.6 µM. For the same compound, the TGI (IGROV1 ovarian) was 18.4 µM, the TGI (SNB-75 CNS) was 25.6 µM and the TGI (MALME-3M melanoma) was 11.1 µM. The TGI (HL-60(TB) leukemia) was 4.23 µM, the TGI (U251 CNS) was 32.7 µM and the TGI (SR leukemia) was 6.21 µM. It also gave a TGI (DLD-1 colon) of 12.5 µM, a TGI (OVCAR-5 ovarian) of 30 µM and a TGI (M19-MEL melanoma) of 26.6 µM. It also gave a TGI (M14 melanoma) of 7.02 µM, a TGI (OVCAR-8 ovarian) of 12.1 µM and a TGI (SK-OV-3 ovarian) of 31.4 µM. It also gave a TGI (SF-295 CNS) of 32.1 µM, a TGI (SNB-78 CNS) of 51.9 µM and a TGI (PC-3 prostate) of 19.6 µM. The TGI (MOLT-4 leukemia) was 6.85 µM, the TGI (NCI-H460 lung) was 36.4 µM and the TGI (NCI-H23 lung) was 18.3 µM. The TGI (SF-539 CNS) was 16 µM and the TGI (UACC-62 melanoma) was 22.6 µM.

`COc1ccc(OC)c2c1-c1nnnn1CCC2(C)C` was tested, and the TGI (COLO 205 colon) was greater than 100 µM, the TGI (HS 578T breast) was greater than 100 µM and the TGI (SF-268 CNS) was greater than 100 µM. For the same compound, the TGI (SK-MEL-28 melanoma) was greater than 100 µM, the TGI (MDA-MB-231 breast) was greater than 100 µM and the TGI (EKVX NSCLC) was greater than 100 µM. The TGI (MDA-MB-435) was greater than 100 µM, the TGI (HCT-116 colon) was greater than 100 µM and the TGI (KM12 colon) was greater than 100 µM. For the same compound, the TGI (BT-549 breast) was greater than 100 µM, the TGI (RPMI-8226 leukemia) was greater than 100 µM and the TGI (SN12C renal) was greater than 100 µM. The TGI (K-562 leukemia) was greater than 100 µM, the TGI (786-0 renal) was greater than 100 µM and the TGI (OVCAR-3 ovarian) was greater than 100 µM. It also gave a TGI (T-47D breast) greater than 100 µM, a TGI (HOP-92 NSCLC) greater than 100 µM and a TGI (UACC-257 melanoma) greater than 100 µM. The TGI (OVCAR-4 ovarian) was greater than 100 µM, the TGI (A498 renal) was greater than 100 µM and the TGI (HCC-2998 colon) was greater than 100 µM. It also gave a TGI (MCF7 breast) greater than 100 µM, a TGI (SW-620 colon) greater than 100 µM and a TGI (ACHN renal) greater than 100 µM. It also gave a TGI (NCI-H522 lung) greater than 100000 nM, a TGI (LOX IMVI melanoma) greater than 100 µM and a TGI (SK-MEL-2 melanoma) greater than 100 µM. For the same compound, the TGI (CCRF-CEM leukemia) was greater than 100 µM, the TGI (HCT-15 colon) was greater than 100 µM and the TGI (HOP-62 NSCLC) was greater than 100 µM. For the same compound, the TGI (NCI/ADR-RES ovarian) was greater than 100 µM, the TGI (UO-31 renal) was greater than 100 µM and the TGI (MDA-N) was greater than 100 µM. The TGI (RXF 393 renal) was greater than 100 µM, the TGI (SNB-19 CNS) was greater than 100 µM and the TGI (TK-10 renal) was greater than 100 µM. It also gave a TGI (HT29 colon) greater than 100 µM, a TGI (DU-145 prostate) greater than 100 µM and a TGI (NCI-H226 lung) greater than 100 µM. For the same compound, the TGI (IGROV1 ovarian) was greater than 100 µM, the TGI (SNB-75 CNS) was greater than 100 µM and the TGI (MALME-3M melanoma) was greater than 100 µM. It also gave a TGI (HL-60(TB) leukemia) greater than 100 µM, a TGI (U251 CNS) greater than 100 µM and a TGI (SR leukemia) greater than 100 µM. The TGI (OVCAR-5 ovarian) was greater than 100 µM, the TGI (M14 melanoma) was greater than 100 µM and the TGI (OVCAR-8 ovarian) was greater than 100 µM. For the same compound, the TGI (SK-OV-3 ovarian) was greater than 100 µM, the TGI (SF-295 CNS) was greater than 100 µM and the TGI (PC-3 prostate) was greater than 100 µM. It also gave a TGI (MOLT-4 leukemia) greater than 100 µM, a TGI (NCI-H460 lung) greater than 100 µM and a TGI (NCI-H23 lung) greater than 100 µM. For the same compound, the TGI (SF-539 CNS) was greater than 100 µM and the TGI (UACC-62 melanoma) was greater than 100 µM.
